Columns and labels:
Assay in all cases: biochemical
Set-up in all cases: KINOMEscan competition binding panel, per cent of control
Settings in all cases: read-out: %Ctrl @ 2800nM
[1] = molecular target: T1, ABL1(Q252H)-phosphorylated (Homo sapiens, UniProt P00519, Q252H)
T1 construct: phosphorylated
Outline: (§1)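 Competition binding panel (KINOMEscan) across 450 human kinases and disease-relevant mutants, run to the contractor's standard protocol. Values are % control: (test signal − positive control signal)/(negative control signal − positive control signal) × 100, with lower values indicating stronger binding.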

AKT2 = AKT2 (Homo sapiens, UniProt P31751)
Outline: as §1

AURKB = AURKB (Homo sapiens, UniProt Q96GD4)
Outline: as §1

CAMK1D = CAMK1D (Homo sapiens, UniProt Q8IU85)
Outline: as §1

CAMKK2 = CAMKK2 (Homo sapiens, UniProt Q96RR4)
Outline: as §1

CDK4 = CDK4 (Homo sapiens, UniProt P11802)
Outline: as §1

EPHA4 = EPHA4 (Homo sapiens, UniProt P54764)
Outline: as §1

EPHB6 = EPHB6 (Homo sapiens, UniProt O15197)
Outline: as §1

ERN1 = ERN1 (Homo sapiens, UniProt O75460)
Outline: as §1

IKK-beta = molecular target: T2, IKK-beta (Homo sapiens, UniProt O14920)
T2 construct: gene IKBKB
Outline: as §1

LATS1 = LATS1 (Homo sapiens, UniProt O95835)
Outline: as §1

MAP3K15 = MAP3K15 (Homo sapiens, UniProt Q6ZN16)
Outline: as §1

MAP4K5 = MAP4K5 (Homo sapiens, UniProt Q9Y4K4)
Outline: as §1

MLK1 = molecular target: T3, MLK1 (Homo sapiens, UniProt P80192)
T3 construct: gene MAP3K9
Outline: as §1

MYLK = MYLK (Homo sapiens, UniProt Q15746)
Outline: as §1

NEK3 = NEK3 (Homo sapiens, UniProt P51956)
Outline: as §1

NIM1 = molecular target: T4, NIM1 (Homo sapiens, UniProt Q8IY84)
T4 construct: gene NIM1K
Outline: as §1

PIK3CA = PIK3CA (Homo sapiens, UniProt P42336)
Outline: as §1

PIK3CA(H1047L) = PIK3CA(H1047L) (Homo sapiens, UniProt P42336, H1047L)
Outline: as §1

PRKD3 = PRKD3 (Homo sapiens, UniProt O94806)
Outline: as §1

PRKG2 = PRKG2 (Homo sapiens, UniProt Q13237)
Outline: as §1

QSK = molecular target: T5, QSK (Homo sapiens, UniProt Q9Y2K2)
T5 construct: gene SIK3
Outline: as §1

RET(V804L) = RET(V804L) (Homo sapiens, UniProt P07949, V804L)
Outline: as §1

SIK = molecular target: T6, SIK (Homo sapiens, UniProt P57059)
T6 construct: gene SIK1
Outline: as §1

TGFBR2 = TGFBR2 (Homo sapiens, UniProt P37173)
Outline: as §1

TRKA = molecular target: T7, TRKA (Homo sapiens, UniProt P04629)
T7 construct: gene NTRK1
Outline: as §1

MAP4K5, sequence (Q9Y4K4 whole entry): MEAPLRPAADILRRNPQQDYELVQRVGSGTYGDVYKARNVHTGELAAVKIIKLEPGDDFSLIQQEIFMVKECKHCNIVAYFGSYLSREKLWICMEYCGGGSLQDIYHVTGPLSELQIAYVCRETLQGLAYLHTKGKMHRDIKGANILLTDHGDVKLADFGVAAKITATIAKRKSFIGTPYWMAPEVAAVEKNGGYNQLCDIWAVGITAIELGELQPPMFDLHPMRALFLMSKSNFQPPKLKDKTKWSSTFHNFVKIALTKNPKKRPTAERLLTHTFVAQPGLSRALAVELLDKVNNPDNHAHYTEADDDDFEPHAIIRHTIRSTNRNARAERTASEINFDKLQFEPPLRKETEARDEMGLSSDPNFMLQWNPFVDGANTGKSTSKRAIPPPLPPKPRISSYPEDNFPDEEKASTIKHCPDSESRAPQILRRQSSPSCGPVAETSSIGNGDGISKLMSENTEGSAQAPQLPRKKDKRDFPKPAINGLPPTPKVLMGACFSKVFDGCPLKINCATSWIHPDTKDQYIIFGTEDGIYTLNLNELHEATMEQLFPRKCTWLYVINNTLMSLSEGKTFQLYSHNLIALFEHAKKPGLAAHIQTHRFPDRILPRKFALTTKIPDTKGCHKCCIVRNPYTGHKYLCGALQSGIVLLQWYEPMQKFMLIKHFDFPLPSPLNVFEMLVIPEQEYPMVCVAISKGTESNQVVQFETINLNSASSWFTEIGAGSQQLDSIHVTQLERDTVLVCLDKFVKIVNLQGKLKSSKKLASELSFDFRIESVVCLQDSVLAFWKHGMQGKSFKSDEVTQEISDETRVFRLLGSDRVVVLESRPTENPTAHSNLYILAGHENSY
CDK4, sequence (P11802 whole entry): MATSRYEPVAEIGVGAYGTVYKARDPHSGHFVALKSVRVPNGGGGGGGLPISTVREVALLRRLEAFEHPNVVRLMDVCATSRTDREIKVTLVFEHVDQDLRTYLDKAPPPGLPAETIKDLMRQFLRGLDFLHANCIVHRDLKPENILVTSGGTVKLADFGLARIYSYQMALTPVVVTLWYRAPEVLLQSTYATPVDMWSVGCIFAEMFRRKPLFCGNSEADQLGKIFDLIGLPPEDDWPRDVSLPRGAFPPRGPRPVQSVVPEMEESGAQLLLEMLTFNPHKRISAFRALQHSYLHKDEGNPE
TGFBR2, sequence (P37173 whole entry): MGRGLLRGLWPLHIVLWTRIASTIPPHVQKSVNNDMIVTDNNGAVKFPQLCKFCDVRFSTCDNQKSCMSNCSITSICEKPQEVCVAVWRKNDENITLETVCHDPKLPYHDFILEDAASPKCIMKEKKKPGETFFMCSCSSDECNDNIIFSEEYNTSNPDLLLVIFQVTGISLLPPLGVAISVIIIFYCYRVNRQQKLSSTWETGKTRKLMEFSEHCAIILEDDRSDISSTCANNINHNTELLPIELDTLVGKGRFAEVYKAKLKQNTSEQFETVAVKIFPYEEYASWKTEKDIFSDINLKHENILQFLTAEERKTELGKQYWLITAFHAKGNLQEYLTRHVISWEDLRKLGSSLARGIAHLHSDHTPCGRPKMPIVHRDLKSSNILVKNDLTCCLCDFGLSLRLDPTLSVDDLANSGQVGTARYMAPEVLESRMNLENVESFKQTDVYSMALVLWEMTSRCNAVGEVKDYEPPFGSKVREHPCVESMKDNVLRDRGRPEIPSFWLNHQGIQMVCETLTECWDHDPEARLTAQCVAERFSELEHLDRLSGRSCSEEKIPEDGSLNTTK
ERN1, sequence (O75460 whole entry): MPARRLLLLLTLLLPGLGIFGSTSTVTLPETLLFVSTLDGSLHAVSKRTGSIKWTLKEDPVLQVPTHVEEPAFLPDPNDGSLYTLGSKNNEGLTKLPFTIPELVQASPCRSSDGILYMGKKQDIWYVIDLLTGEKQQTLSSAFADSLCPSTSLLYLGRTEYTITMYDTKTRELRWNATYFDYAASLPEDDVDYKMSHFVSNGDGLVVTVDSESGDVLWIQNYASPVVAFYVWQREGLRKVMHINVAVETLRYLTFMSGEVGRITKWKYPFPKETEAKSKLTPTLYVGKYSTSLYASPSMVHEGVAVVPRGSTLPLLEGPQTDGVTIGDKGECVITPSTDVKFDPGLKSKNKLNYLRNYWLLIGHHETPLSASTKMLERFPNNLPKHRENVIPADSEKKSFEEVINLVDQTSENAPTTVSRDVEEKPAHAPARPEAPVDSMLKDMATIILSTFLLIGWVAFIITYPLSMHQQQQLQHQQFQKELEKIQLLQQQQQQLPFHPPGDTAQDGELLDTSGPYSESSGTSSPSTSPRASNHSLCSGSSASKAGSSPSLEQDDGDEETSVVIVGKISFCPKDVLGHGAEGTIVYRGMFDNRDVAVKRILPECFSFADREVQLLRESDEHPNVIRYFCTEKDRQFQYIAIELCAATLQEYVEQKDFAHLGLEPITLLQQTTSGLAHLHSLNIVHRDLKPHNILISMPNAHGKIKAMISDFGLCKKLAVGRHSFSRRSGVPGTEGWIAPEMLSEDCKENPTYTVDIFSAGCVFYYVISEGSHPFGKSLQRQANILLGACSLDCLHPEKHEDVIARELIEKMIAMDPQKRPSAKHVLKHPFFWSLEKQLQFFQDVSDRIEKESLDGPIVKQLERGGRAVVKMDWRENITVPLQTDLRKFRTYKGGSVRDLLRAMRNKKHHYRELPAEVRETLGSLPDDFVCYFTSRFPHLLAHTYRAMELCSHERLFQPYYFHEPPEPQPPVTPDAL
LATS1, sequence (O95835 whole entry): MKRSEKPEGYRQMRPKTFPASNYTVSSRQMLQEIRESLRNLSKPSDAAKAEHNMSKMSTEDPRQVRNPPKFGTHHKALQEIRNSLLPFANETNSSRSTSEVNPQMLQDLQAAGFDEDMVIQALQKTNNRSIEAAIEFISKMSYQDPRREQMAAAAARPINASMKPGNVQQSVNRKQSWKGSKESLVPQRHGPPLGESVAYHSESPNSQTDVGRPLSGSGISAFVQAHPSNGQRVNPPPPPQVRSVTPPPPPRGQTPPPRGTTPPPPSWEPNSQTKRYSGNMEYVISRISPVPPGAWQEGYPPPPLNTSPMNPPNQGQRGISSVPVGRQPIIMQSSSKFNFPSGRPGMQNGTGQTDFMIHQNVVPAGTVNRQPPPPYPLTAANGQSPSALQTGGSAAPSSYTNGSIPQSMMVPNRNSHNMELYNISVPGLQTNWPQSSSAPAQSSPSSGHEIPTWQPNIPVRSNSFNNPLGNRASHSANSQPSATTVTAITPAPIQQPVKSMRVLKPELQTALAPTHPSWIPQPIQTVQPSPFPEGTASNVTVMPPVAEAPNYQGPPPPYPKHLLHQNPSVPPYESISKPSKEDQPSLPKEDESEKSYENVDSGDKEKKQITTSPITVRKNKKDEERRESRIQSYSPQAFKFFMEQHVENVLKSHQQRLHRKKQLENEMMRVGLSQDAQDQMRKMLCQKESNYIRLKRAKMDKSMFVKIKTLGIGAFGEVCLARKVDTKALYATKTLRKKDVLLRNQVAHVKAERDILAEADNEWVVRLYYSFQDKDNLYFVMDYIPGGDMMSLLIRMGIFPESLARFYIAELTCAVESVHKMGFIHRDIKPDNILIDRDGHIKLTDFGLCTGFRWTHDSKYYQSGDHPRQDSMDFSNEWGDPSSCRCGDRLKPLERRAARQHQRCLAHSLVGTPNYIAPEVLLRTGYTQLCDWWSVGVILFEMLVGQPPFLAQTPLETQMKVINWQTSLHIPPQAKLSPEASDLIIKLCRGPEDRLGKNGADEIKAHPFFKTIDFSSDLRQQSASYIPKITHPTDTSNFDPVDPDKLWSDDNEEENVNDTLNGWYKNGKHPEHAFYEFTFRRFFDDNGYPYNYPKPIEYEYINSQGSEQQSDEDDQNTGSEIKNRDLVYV
RET(V804L), sequence (P07949 whole entry V804L): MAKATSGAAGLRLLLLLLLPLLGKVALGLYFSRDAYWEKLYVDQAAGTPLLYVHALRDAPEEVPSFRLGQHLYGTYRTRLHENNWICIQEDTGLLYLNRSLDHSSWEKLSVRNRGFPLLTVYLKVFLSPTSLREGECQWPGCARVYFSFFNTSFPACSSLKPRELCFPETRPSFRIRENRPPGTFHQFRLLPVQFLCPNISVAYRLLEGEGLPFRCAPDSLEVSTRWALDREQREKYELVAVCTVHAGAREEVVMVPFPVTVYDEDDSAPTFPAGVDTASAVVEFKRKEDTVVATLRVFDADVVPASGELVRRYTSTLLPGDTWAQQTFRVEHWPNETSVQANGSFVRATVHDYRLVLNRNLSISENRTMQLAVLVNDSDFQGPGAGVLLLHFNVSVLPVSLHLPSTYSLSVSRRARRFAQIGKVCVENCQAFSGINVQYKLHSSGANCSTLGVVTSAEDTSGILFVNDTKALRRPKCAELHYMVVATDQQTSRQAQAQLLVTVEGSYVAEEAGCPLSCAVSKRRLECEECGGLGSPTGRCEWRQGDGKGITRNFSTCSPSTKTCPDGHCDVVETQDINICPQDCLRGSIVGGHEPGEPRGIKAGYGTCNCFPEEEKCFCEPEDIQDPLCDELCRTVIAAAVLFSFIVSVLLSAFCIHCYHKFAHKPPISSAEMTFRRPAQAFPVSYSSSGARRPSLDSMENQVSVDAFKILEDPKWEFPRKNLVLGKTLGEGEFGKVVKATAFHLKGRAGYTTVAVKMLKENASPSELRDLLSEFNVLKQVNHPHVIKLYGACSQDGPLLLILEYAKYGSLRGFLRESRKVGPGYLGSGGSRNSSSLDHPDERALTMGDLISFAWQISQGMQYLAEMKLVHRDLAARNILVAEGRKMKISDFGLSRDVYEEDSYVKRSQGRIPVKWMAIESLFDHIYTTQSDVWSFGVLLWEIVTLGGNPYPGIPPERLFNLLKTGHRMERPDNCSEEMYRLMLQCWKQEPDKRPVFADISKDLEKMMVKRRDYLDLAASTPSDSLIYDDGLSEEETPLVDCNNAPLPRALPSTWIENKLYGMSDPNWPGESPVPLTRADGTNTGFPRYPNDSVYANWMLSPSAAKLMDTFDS

`[O-][S@@+](Cc1cncs1)C(c1ccccc1)c1ccccc1` [S-CE-123, (S)-5-((Benzhydrylsulfinyl)Methyl)Thiazole] showed a remaining binding at 2.8 µM [1] of 84%, a remaining binding at 2.8 µM (AKT2) of 87% and a remaining binding at 2.8 µM (AURKB) of 78%. The remaining binding at 2.8 µM (CAMK1D) was 96%, the remaining binding at 2.8 µM (CAMKK2) was 94% and the remaining binding at 2.8 µM (CDK4) was 100%. It also gave a remaining binding at 2.8 µM (EPHA4) of 97%, a remaining binding at 2.8 µM (EPHB6) of 89% and a remaining binding at 2.8 µM (ERN1) of 86%. For the same compound, the remaining binding at 2.8 µM (IKK-beta) was 96%, the remaining binding at 2.8 µM (LATS1) was 93% and the remaining binding at 2.8 µM (MAP3K15) was 84%. For the same compound, the remaining binding at 2.8 µM (MAP4K5) was 95%, the remaining binding at 2.8 µM (MLK1) was 100% and the remaining binding at 2.8 µM (MYLK) was 96%. For the same compound, the remaining binding at 2.8 µM (NEK3) was 100%, the remaining binding at 2.8 µM (NIM1) was 97% and the remaining binding at 2.8 µM (PIK3CA) was 80%. The remaining binding at 2.8 µM (PIK3CA(H1047L)) was 100%, the remaining binding at 2.8 µM (PRKD3) was 96% and the remaining binding at 2.8 µM (PRKG2) was 99%. The remaining binding at 2.8 µM (QSK) was 93%, the remaining binding at 2.8 µM (RET(V804L)) was 91% and the remaining binding at 2.8 µM (SIK) was 100%. The remaining binding at 2.8 µM (TGFBR2) was 88% and the remaining binding at 2.8 µM (TRKA) was 100%.

From article PMC10046369, “Low-Affinity/High-Selectivity Dopamine Transport Inhibition Sufficient to Rescue Cognitive Functions in the Aging Rat” (Biomolecules, 2023)
